In US20080287396A1, “Phosphonated Fluoroquinolones, Antibacterial Analogs Thereof, and Methods for the Prevention and Treatment of Bone and Joint Infections” (TARGANTA THERAPEUTICA INC., priority 2005, published 2008):

Test: Levels of prodrug 52 in rat plasma in vivo
Procedure: Female CD rats (age, 57 to 70 days; n=3/group; Charles River, St-Constant, Canada) were administered a single bolus intravenous (tail vein) dose of compound 52 (dissolved in 0.85% NaCl) at 15.8 mg/kg of body weight, corresponding to 10 mg/kg of moxifloxacin 3. Animals were sacrificed by CO2 inhalation at the specified time points after i.v. dosing to evaluate the levels of 52 in plasma. Blood samples were collected by cardiac puncture and transferred in BD Vacutainer tubes (green cap) for plasma isolation. The plasma components were obtained by centrifugation of these samples and they were stored at −80° C. until analysis.
For the dosage of prodrug in the plasma, the standards and QCs were prepared (in duplicate) as follows: to 100 μl of blank plasma was added a spiking solution (5 μl) of the prodrug (52 in water). The range of the standards (8 levels) was from 0.06 to 25 μM and the QC levels were 0.18, 1.87 and 18.75 μM. Four samples of blank plasma without prodrug were also prepared. […]
Moxifloxacin 3 resulting from the cleavage of the prodrug was analyzed with the same method on an Agilent 1100™ series LC/MSD Trap, The extracted sample was injected into a Zorbax™ SB-Aq column (2×30 mm, 3.5μ), using 0.1% formic acid in water(aq) and 0.1% formic acid in acetonitrile(org) as the mobile phase, at a flow rate of 0.3 ml/min. […]

With `COc1c(N2C[C@@H]3CCCN[C@@H]3C2)c(F)cc2c(=O)c(C(=O)OCC(=O)NC(P(=O)(O)O)P(=O)(O)O)cn(C3CC3)c12` [Compound 52, (1,1-Bisphosphonomethylcarbamoyl)methyl 1-cyclopropyl-6-fluoro-1,4-dihydro-7-((4aS,7aS)-octahydropyrrolo[3,4-b]pyridin-6-yl)-8-methoxy-4-oxoquinoline-3-carboxylate] the “clearance from the blood circulation of rats, in words” value (FIG. 5) was “rapid clearance” and the “half-life of clearance from the circulation” value (rat plasma, IV bolus 15.8 mg/kg, 5 min to 24 h) was “less than one hour”.
